Three compounds from ChEMBL document CHEMBL1201862, “PubChem BioAssay data set” (2004) can be followed below.

Assay [1] has as its system INS1. The assay is described as follows: inhibitors of cytokine-induced nitrite release, dose response, cell-based, Griess absorbance, INS-1E, dry powder, set 2 (AID 488868). The class given is functional. The following applies: Rattus norvegicus. On the technique in general: The Griess reaction detects nitrite, a stable product of nitric oxide.
Assay [2] addresses T1, Sentrin-specific protease 6 (Homo sapiens, UniProt Q9GZR1).
T1 sequence (Q9GZR1 whole entry): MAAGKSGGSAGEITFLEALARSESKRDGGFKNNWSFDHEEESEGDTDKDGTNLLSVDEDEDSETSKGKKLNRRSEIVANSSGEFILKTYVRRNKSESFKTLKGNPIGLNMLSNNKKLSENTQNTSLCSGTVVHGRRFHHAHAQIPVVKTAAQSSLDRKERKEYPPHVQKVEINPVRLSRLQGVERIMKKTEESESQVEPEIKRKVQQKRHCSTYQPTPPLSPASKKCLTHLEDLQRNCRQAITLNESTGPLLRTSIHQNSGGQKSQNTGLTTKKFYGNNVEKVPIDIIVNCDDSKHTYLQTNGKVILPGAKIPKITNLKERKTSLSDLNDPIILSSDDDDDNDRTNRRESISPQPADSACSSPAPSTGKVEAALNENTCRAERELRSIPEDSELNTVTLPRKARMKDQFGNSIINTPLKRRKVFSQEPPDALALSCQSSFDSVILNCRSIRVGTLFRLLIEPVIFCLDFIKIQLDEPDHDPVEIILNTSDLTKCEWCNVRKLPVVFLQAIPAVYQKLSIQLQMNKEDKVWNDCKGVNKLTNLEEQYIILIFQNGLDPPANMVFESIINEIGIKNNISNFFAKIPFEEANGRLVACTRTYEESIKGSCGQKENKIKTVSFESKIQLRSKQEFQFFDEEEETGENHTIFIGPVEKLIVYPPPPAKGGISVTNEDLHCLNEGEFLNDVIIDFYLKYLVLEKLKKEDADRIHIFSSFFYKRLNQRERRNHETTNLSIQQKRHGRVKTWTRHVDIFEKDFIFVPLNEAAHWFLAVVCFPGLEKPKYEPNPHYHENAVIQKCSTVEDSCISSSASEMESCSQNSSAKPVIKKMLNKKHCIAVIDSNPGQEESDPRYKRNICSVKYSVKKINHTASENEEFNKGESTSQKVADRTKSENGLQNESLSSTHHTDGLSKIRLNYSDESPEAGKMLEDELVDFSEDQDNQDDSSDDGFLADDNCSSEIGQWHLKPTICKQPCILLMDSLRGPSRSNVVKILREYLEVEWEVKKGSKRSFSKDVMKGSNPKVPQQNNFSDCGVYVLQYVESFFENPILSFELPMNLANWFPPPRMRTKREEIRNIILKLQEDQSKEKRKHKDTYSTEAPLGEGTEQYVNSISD
The assay is described as follows: SENP6 protease inhibitors, SAR follow-up, biochemical, luminescence, set 2 (AID 588598). The class given is functional.

The target of assay [3] is T2, Sentrin-specific protease 7 (Homo sapiens, UniProt Q9BQF6).
T2 sequence (Q9BQF6 whole entry): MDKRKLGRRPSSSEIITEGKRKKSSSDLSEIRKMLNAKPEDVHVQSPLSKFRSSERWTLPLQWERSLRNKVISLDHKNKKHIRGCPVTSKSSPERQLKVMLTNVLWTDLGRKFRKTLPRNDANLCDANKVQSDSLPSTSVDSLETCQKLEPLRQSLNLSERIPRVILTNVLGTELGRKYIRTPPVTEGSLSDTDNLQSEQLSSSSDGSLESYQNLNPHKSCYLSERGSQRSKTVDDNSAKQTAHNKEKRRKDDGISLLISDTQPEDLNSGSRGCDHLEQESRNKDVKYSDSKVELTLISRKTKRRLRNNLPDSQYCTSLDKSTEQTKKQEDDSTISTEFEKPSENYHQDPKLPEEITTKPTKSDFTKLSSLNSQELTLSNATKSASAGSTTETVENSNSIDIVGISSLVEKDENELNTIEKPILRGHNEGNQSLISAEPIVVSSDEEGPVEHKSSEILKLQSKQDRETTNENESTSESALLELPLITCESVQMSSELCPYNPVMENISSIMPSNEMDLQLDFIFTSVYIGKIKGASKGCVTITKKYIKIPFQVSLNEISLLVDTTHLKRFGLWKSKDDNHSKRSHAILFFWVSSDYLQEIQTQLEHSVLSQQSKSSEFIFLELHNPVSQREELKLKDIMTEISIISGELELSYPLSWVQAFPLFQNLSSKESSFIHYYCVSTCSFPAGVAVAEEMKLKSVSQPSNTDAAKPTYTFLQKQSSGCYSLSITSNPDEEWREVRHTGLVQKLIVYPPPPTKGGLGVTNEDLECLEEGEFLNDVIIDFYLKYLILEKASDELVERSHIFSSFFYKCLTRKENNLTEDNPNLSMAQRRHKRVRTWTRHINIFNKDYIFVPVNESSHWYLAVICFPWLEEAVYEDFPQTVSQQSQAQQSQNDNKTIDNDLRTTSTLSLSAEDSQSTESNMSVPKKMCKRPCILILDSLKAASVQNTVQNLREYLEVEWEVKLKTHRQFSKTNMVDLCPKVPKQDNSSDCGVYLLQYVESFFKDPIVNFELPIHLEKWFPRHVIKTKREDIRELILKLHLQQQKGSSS
The assay is described as follows: SENP7 protease inhibitors, SAR follow-up, biochemical, luminescence, set 2 (AID 588600). The assay is classed as functional.

The target in assay [4] is T3, Sentrin-specific protease 8 (Homo sapiens, UniProt Q96LD8).
T3 sequence (Q96LD8 whole entry): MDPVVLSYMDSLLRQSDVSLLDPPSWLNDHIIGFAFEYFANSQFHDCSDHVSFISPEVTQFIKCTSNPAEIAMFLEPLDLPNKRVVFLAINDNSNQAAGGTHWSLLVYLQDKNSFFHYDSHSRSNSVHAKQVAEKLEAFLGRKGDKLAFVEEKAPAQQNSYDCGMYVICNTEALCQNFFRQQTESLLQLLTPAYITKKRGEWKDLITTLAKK
The assay can be described thus: SENP8 protease inhibitors, SAR follow-up, biochemical, luminescence, set 2 (AID 588601). The class given is functional.

For assay [5], the target named is T4, Caspase-3 (Homo sapiens, UniProt P42574).
T4 sequence (P42574 whole entry): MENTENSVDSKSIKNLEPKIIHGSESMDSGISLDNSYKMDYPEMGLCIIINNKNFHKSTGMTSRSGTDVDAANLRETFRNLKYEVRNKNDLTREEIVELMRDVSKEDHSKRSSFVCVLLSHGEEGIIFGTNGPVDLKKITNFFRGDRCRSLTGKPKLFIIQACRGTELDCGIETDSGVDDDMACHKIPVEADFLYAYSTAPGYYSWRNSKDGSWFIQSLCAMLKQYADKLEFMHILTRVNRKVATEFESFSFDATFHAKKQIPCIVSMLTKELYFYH
The assay is described as follows: caspase-3 inhibitors as off-family protease, SAR follow-up, selectivity assay for SENP protease inhibitor project, biochemical, luminescence, set 2 (AID 588599). The assay is classed as functional.

Assay [6] addresses T5, Insulin-degrading enzyme (Homo sapiens, UniProt P14735). The assay is described as follows: activators of recombinant IDE enzyme, dose response, counter-screen for IDE activator project, biochemical, fluorescence polarization (AID 588681). A general note: A counterscreen serves to expose hits that act by an unwanted route or on another target.
Assay [7] concerns HEK293. The assay is described as follows: HEK cell cytotoxicity by LDH release, dose response, cytotoxicity control for IDE activator project, fluorescence, HEK cells (AID 588440).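 Also: cytotoxicity by LDH release measuring loss of membrane integrity.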 To be noted: Homo sapiens. The class given is functional, cell-based.
The test system of assay [8] is HEK293. The assay is described as follows: optical interference in Abeta FP readout, dose response, artefact control for IDE activator project, biochemical, fluorescence polarization (AID 588442). The class given is functional, cell-based. The following applies: Homo sapiens. On the technique in general: Fluorescence polarisation rises when a labelled molecule tumbles more slowly, as on binding a larger partner.

Assay [9] has as its target T5, Insulin-degrading enzyme. The assay can be described thus: activators of endogenous IDE in HEK cells, dose response, cell-based, fluorescence polarization (AID 588439). The assay is classed as functional.
Assay [10] is described as follows: Luminescence Cell-Based Dose Retest to Confirm Inhibitors of Cancer Stem Cells. [Related pubchem assays (depositor defined):AID2717, AID2721]. The class given is functional. The following applies: Homo sapiens.

SMILES strings stand for the structures. The source made the active and inactive calls. A value given as a limit tells only on which side of the number the result lay.

T5 sequence (P14735 whole entry): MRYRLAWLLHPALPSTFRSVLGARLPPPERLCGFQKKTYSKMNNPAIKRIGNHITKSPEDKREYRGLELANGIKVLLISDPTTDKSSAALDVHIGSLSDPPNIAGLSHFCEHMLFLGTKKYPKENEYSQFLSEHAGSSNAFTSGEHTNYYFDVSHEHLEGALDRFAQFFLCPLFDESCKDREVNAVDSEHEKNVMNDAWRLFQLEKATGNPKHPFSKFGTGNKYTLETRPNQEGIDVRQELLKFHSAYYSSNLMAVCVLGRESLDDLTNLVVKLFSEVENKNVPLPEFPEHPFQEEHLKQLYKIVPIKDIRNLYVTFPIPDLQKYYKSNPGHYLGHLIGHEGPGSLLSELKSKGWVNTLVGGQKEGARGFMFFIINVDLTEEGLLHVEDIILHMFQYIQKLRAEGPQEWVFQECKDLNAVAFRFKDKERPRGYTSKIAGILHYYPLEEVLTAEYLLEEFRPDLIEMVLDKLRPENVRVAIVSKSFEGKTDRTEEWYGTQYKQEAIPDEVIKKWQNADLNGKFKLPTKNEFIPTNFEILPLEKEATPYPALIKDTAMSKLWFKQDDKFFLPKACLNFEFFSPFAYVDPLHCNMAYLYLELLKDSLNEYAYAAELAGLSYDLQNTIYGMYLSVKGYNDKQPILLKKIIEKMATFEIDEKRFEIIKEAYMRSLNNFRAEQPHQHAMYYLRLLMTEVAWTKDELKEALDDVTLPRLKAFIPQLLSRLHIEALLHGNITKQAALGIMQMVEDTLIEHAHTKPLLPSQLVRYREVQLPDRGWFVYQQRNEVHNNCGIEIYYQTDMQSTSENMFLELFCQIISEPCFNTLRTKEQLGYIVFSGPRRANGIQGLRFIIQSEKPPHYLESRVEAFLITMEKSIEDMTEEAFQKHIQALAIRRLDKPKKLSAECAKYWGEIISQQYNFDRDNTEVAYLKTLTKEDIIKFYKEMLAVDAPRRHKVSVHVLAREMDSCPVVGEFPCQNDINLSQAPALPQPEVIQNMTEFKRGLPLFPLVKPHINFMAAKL

`C[C@@H]1CN([C@@H](C)CO)C(=O)c2cccc(NC(=O)Nc3cccc4ccccc34)c2O[C@H]1CN(C)S(=O)(=O)c1cccs1`: in assay [1], the AC50 (as a rule, the midpoint of the concentration-response curve, whichever way the signal moves) was 206 µM (active).
Take `O=C1CN(C(=O)C(=O)c2c[nH]c3ccccc23)c2ccccc2N1`: the IC50 in assay [2], in assay [3], in [4] and in assay [5] was > 99 µM (inactive) each time.
With `C=CCN1C(=O)/C(=C2\C(=O)Nc3ccccc32)S/C1=N/c1ccc(O)cc1`, the EC50 – broadly, the concentration needed to bring the measured effect to its halfway point – in assay [6] is > 54.7 µM (inactive); in assay [8], > 54.7 µM (inactive); in assay [9], 16.6 µM (inactive). Also, the IC50 (in general, the concentration needed to halve the response being measured) in assay [7] is 26.6 µM (inactive). The AC50 in [10] is 4.14 µM (active).
